Laboratory results as given in patent publication US12410153B2, “Compounds, compositions and methods” (Avalo Therapeutics, Inc., priority 2014, dated 2025).
Like-named read-outs stand apart in the source and are kept apart here.

Experiment: Repeated once-daily oral dosing with food (Days 1-7) in healthy subjects, PK and PD
Assay type: in vivo, human
Conditions: for Cmax: read-out: Cmax, Mean (SD); for AUC(0-inf): read-out: AUCinf, Mean (SD)
Experimental: A randomized, double-blind, placebo-controlled, parallel-dose group in-patient study is conducted to investigate the pharmacodynamic (PD) effects of crystalline Form II of Compound (I) in healthy subjects.
The study is designed as a three-part, sequential study. The sequential nature of the study ensures that a range of doses are investigated first in a young, healthy population (Part 1) before proceeding to higher doses in the healthy population and the comparator populations (intermediate age and elderly) (Parts 2 and 3). For the purposes of this study, “young” refers to a subject who is 18 to 45 years of age, “intermediate age” refers to a subject who is 46 to 64 years of age, and “elderly” refers to a subject who is 65 years of age or older.
After a screening period of up to 21 days (Days −23 to −3), 16 healthy, young male and female subjects are randomly assigned to a dose group as shown in Table 9.
Each parallel dose group is balanced for gender (approximately equal number of males and females). The randomized subjects are domiciled from Day −1 through Day 8. On Day −1, the subjects receive placebo tablets in the fed state and undergo ambulatory blood pressure monitoring (ABPM) and safety assessments to establish time-matched baselines. On Days 1-7, the subjects receive the study drug in the fed state and undergo safety, pharmacokinetic (PK) and pharmacodynamics (PD) assessments. On Days 8-11, follow-up PK and safety assessments are performed.
Safety assessments include Clinician-Administered Dissociative States Scale (CADSS), Columbia-Suicide Severity Rating Scale (C-SSRS), concomitant medication, adverse event (AE) and vital sign assessments. In PK assessments, blood samples are taken and analyzed to determine PK parameters such as Cmax, Tmax, AUC0-24, and t1/2. PD assessments include ABPM, plasma brain-derived neurotrophic factor (BDNF) measurements, and Profile of Mood States (POMS) assessments.
After a screening period of up to 21 days (Days −23 to −3), 16 subjects (8 healthy, young male and female subjects, and 8 healthy, intermediate age male and female subjects) are randomly assigned to a dose group as shown in Table 10.
After a screening period of up to 21 days (Days −23 to −3), 16 subjects (8 healthy, young male and female subjects, and 8 healthy, elderly male and female subjects) are randomly assigned to a dose group as shown in Table 11.

[1] = both sexes, human, plasma, oral, 12 mg, young subjects, 12 mg, Day 7
[2] = both sexes, human, plasma, oral, 16 mg, young subjects, 16 mg, Day 7
[3] = both sexes, human, plasma, oral, 20 mg, young subjects, 20 mg, Day 7

Cc1ccc(COC(=O)N2CC[C@H](CNc3ncccn3)[C@H](F)C2)cc1 [Form II, 4-methylbenzyl (3S, 4R)-3-fluoro-4-[(pyrimidin-2-ylamino)methyl] piperidine-1-carboxylate]
AUC(0-t) (both sexes, human, plasma, oral, 12 mg, young subjects, 12 mg, Day 1, read-out: AUC0-24, Mean (SD)): 1860 ng·h/mL
AUC(0-t) (both sexes, human, plasma, oral, 12 mg, young subjects, 12 mg, Day 1, read-out: AUClast, Mean (SD)): 1840 ng·h/mL
Cmax (both sexes, human, plasma, oral, 12 mg, young subjects, 12 mg, Day 1): 239 ng/mL
Vd/F (both sexes, human, plasma, oral, 12 mg, young subjects, 12 mg, Day 1, read-out: Vz/F, Mean (SD)): 197 L
Tmax (both sexes, human, plasma, oral, 12 mg, young subjects, 12 mg, Day 1, read-out: tmax, Mean (SD)): 1.77 h
Tmax (both sexes, human, plasma, oral, 12 mg, young subjects, 12 mg, Day 1, read-out: tmax, Median): 1.5 h
AUC(0-t) (both sexes, human, plasma, oral, 12 mg, young subjects, 12 mg, Day 7, read-out: AUC0-24, Mean (SD)): 3060 ng·h/mL
AUC(0-inf) [1]: 5930 ng·h/mL
AUC(0-t) (both sexes, human, plasma, oral, 12 mg, young subjects, 12 mg, Day 7, read-out: AUClast, Mean (SD)): 5610 ng·h/mL
Cmax [1]: 274 ng/mL
Vd/F (both sexes, human, plasma, oral, 12 mg, young subjects, 12 mg, Day 7, read-out: Vss/F, Mean (SD)): 115 L
half-life (both sexes, human, plasma, oral, 12 mg, young subjects, 12 mg, Day 7, read-out: t1/2, Mean (SD) (converted)): 20.5 h
Tmax (both sexes, human, plasma, oral, 12 mg, young subjects, 12 mg, Day 7, read-out: tmax, Mean (SD)): 2.42 h
Tmax (both sexes, human, plasma, oral, 12 mg, young subjects, 12 mg, Day 7, read-out: tmax, Median): 2.5 h
AUC(0-t) (both sexes, human, plasma, oral, 16 mg, young subjects, 16 mg, Day 1, read-out: AUC0-24, Mean (SD)): 2660 ng·h/mL
AUC(0-t) (both sexes, human, plasma, oral, 16 mg, young subjects, 16 mg, Day 1, read-out: AUClast, Mean (SD)): 2630 ng·h/mL
Cmax (both sexes, human, plasma, oral, 16 mg, young subjects, 16 mg, Day 1): 306 ng/mL
Vd/F (both sexes, human, plasma, oral, 16 mg, young subjects, 16 mg, Day 1, read-out: Vz/F, Mean (SD)): 175 L
Tmax (both sexes, human, plasma, oral, 16 mg, young subjects, 16 mg, Day 1, read-out: tmax, Mean (SD)): 2.58 h
Tmax (both sexes, human, plasma, oral, 16 mg, young subjects, 16 mg, Day 1, read-out: tmax, Median): 3 h
AUC(0-t) (both sexes, human, plasma, oral, 16 mg, young subjects, 16 mg, Day 7, read-out: AUC0-24, Mean (SD)): 4300 ng·h/mL
AUC(0-inf) [2]: 8020 ng·h/mL
AUC(0-t) (both sexes, human, plasma, oral, 16 mg, young subjects, 16 mg, Day 7, read-out: AUClast, Mean (SD)): 7450 ng·h/mL
Cmax [2]: 413 ng/mL
half-life (both sexes, human, plasma, oral, 16 mg, young subjects, 16 mg, Day 7, read-out: t1/2, Mean (SD) (converted)): 20 h
Tmax (both sexes, human, plasma, oral, 16 mg, young subjects, 16 mg, Day 7, read-out: tmax, Mean (SD)): 1.75 h
Tmax (both sexes, human, plasma, oral, 16 mg, young subjects, 16 mg, Day 7, read-out: tmax, Median): 1.75 h
AUC(0-t) (both sexes, human, plasma, oral, 20 mg, young subjects, 20 mg, Day 1, read-out: AUC0-24, Mean (SD)): 3520 ng·h/mL
AUC(0-t) (both sexes, human, plasma, oral, 20 mg, young subjects, 20 mg, Day 1, read-out: AUClast, Mean (SD)): 3480 ng·h/mL
Cmax (both sexes, human, plasma, oral, 20 mg, young subjects, 20 mg, Day 1): 384 ng/mL
Vd/F (both sexes, human, plasma, oral, 20 mg, young subjects, 20 mg, Day 1, read-out: Vz/F, Mean (SD)): 148 L
Tmax (both sexes, human, plasma, oral, 20 mg, young subjects, 20 mg, Day 1, read-out: tmax, Mean (SD)): 2.17 h
Tmax (both sexes, human, plasma, oral, 20 mg, young subjects, 20 mg, Day 1, read-out: tmax, Median): 2.25 h
AUC(0-t) (both sexes, human, plasma, oral, 20 mg, young subjects, 20 mg, Day 7, read-out: AUC0-24, Mean (SD)): 6040 ng·h/mL
AUC(0-inf) [3]: 10500 ng·h/mL
AUC(0-t) (both sexes, human, plasma, oral, 20 mg, young subjects, 20 mg, Day 7, read-out: AUClast, Mean (SD)): 10100 ng·h/mL
Cmax [3]: 534 ng/mL
half-life (both sexes, human, plasma, oral, 20 mg, young subjects, 20 mg, Day 7, read-out: t1/2, Mean (SD) (converted)): 18.8 h
Tmax (both sexes, human, plasma, oral, 20 mg, young subjects, 20 mg, Day 7, read-out: tmax, Mean (SD)): 1.67 h
Tmax (both sexes, human, plasma, oral, 20 mg, young subjects, 20 mg, Day 7, read-out: tmax, Median): 1.5 h
Tmax (both sexes, human, plasma, oral, Day 1, read-out: median Tmax values, range): 2 to 3 h
Vd (both sexes, human, plasma, oral, Day 7, read-out: average apparent volume of distribution, range): 83 to 116 L
half-life (both sexes, human, plasma, oral, Day 7, read-out: average t½, range): 17 to 25 h
half-life (both sexes, human, plasma, oral, Day 7, read-out: average t½, range across genders): 21 to 24 h
Tmax (both sexes, human, plasma, oral, Day 7, read-out: median Tmax values, range): 1.5 to 3 h
Day 7/Day 1 Cmax Ratio, Mean (SD) (elderly, 12 mg): 1.53 (0.13)
Observed Accumulation Index, Mean (SD) (elderly, 12 mg): 2.12 (0.22)
Steady State Accumulation Index, Mean (SD) (elderly, 12 mg): 1.30 (0.11)
CL/F, Mean (SD) (elderly, 12 mg, Day 1): 5.87 (1.32) L/h
